Results as given in ChEMBL document CHEMBL1121455, “N-(alpha-Hydroxyalkanoyl) derivatives of Leu-Val-Phe-OCH3 as inhibitors of renin” (J Med Chem, 1980).
Residues, ends and D or L forms follow the SMILES beside them.

What follows are molecules tested against T1, Renin (Homo sapiens, UniProt P00797) (assay: Inhibition of human amniotic renin was tested and determined by Dixon plots).
T1 sequence (P00797 whole entry): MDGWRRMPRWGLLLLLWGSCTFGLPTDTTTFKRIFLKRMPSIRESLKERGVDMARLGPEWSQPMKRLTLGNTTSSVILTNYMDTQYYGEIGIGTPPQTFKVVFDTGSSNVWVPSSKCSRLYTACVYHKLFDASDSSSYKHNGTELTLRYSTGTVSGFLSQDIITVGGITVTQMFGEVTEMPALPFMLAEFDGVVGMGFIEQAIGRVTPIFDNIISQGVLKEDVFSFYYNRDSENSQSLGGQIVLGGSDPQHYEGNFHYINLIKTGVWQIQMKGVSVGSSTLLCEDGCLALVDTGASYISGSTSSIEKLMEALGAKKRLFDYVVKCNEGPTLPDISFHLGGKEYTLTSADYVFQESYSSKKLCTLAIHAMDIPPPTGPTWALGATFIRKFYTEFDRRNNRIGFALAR

Row | Ki | Compound
1 | 670 µM | COC(=O)[C@H](Cc1ccccc1)NC(=O)[C@@H](NC(=O)[C@H](CC(C)C)NC(=O)[C@@H](O)Cc1ccccc1)C(C)C (HELM PEPTIDE1{[O=C([C@@H](O)Cc1ccccc1)[*:2]].L.V.F.[CO[*:1]]}$$$$V2.0)
2 | 530 µM | COC(=O)[C@H](Cc1ccccc1)NC(=O)[C@@H](NC(=O)[C@H](CC(C)C)NC(=O)[C@@H](O)c1ccccc1)C(C)C
3 | 230 µM | COC(=O)[C@H](Cc1ccccc1)NC(=O)[C@@H](NC(=O)[C@H](CC(C)C)NC(=O)[C@@H](O)CC(C)C)C(C)C
4 | 600 µM | COC(=O)[C@H](Cc1ccccc1)NC(=O)[C@@H](NC(=O)[C@H](CC(C)C)NC(=O)[C@H](O)CC(C)C)C(C)C
5 | 300 µM | COC(=O)[C@H](Cc1ccccc1)NC(=O)[C@@H](NC(=O)[C@H](CC(C)C)NC(=O)[C@@H](O)C(C)C)C(C)C
6 | 1780 µM | COC(=O)[C@H](Cc1ccccc1)NC(=O)[C@@H](NC(=O)[C@H](CC(C)C)NC(=O)[C@H](O)C(C)C)C(C)C
7 | 1140 µM | COC(=O)[C@H](Cc1ccccc1)NC(=O)[C@@H](NC(=O)[C@H](CC(C)C)NC(=O)[C@@H](N)CC(C)C)C(C)C (HELM PEPTIDE1{L.L.V.F.[CO[*:1]]}$$$$V2.0)
8 | 980 µM | COC(=O)[C@H](Cc1ccccc1)NC(=O)[C@@H](NC(=O)[C@H](CC(C)C)NC(=O)[C@H](O)c1ccccc1)C(C)C
